# pEC50: −log10 of the molar value.
# Assays:
# Type in all cases: cell-based
# human VPAC1 receptor = biological target: T1, human VPAC1 receptor (Homo sapiens, UniProt P32241); experiment: cAMP stimulation in CHO cells expressing VPAC1
# T1 construct: expressed in transfected cells; host or cells: CHO cells (G418 selection)
# T1 sequence (P32241 31-457): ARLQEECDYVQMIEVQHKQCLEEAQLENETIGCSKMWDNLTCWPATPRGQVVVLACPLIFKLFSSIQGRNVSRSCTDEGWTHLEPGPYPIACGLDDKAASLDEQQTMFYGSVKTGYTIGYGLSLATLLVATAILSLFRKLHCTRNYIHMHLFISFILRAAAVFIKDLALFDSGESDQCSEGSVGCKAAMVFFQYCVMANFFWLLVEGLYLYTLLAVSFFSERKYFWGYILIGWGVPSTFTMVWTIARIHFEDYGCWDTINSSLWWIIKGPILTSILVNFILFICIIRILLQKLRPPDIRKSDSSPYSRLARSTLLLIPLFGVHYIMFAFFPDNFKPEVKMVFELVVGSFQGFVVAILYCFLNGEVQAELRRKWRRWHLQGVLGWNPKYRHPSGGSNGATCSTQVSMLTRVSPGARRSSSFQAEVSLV
# human PAC1 receptor = biological target: T2, human PAC1 receptor (Homo sapiens, UniProt P41586); experiment: cAMP stimulation in CHO cells expressing PAC1
# T2 construct: expressed in transfected cells; host or cells: CHO cells (G418 selection)
# T2 sequence (P41586 21-468): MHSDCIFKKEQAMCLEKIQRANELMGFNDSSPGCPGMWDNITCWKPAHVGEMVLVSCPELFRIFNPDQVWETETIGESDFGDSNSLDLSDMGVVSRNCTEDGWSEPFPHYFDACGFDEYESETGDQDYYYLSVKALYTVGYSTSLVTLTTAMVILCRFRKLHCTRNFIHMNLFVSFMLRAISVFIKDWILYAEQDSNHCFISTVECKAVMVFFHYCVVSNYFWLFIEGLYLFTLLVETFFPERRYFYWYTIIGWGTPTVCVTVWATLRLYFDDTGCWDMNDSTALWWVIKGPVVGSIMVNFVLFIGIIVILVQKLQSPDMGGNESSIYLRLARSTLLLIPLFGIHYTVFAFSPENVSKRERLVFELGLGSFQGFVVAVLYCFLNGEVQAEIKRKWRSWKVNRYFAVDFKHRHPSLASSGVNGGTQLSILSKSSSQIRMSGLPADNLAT
# Summary of the method: (§1)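 Serum-starved CHO cells expressing human receptors were pre-treated 20 min with 500 μM IBMX, then exposed to agonist concentration curves for 10 min in 500 μM IBMX. cAMP quantified by competition with bovine PKA and ^3H-cAMP (1 h, room temperature), scintillation read.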
# human VPAC2 receptor = biological target: T3, human VPAC2 receptor (Homo sapiens, UniProt P41587); experiment: cAMP stimulation in CHO cells expressing VPAC2
# T3 construct: expressed in transfected cells; host or cells: CHO cells (G418 selection)
# T3 sequence (P41587 24-438): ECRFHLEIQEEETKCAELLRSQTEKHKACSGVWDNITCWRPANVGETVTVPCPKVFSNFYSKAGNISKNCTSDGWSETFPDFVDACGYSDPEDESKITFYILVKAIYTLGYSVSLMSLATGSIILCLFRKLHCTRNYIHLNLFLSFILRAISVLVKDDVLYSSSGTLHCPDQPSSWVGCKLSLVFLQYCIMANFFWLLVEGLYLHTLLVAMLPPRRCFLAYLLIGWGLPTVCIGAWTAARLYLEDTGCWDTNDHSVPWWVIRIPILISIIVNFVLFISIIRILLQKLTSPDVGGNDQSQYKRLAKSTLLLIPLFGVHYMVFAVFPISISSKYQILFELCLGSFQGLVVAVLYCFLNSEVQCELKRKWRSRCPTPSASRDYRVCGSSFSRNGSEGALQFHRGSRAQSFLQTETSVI
# Summary of the method: as §1
structure (smiles),measurement,setting,value
CC[C@H](C)[C@H](NC(=O)CNC(=O)[C@H](CC(=O)O)NC(=O)[C@H](CO)NC(=O)[C@@H](N)Cc1c[nH]cn1)C(=O)N[C@@H](Cc1ccccc1)C(=O)N[C@H](C(=O)N[C@@H](CC(=O)O)C(=O)N[C@@H](CO)C(=O)N[C@@H](Cc1ccc(O)cc1)C(=O)N[C@@H](CO)C(=O)N[C@@H](CCCNC(=N)N)C(=O)N[C@@H](Cc1ccc(O)cc1)C(=O)N[C@@H](CCCNC(=N)N)C(=O)N[C@@H](CCCCN)C(=O)N[C@@H](CCC(N)=O)C(=O)N[C@@H](CC(C)C)C(=O)N[C@@H](C)C(=O)N[C@H](C(=O)N[C@@H](CCCCN)C(=O)N[C@@H](CCCCN)C(=O)N[C@@H](Cc1ccc(O)cc1)C(=O)N[C@@H](CC(C)C)C(=O)N[C@@H](C)C(=O)N[C@@H](C)C(=O)N[C@H](C(=O)N[C@@H](CC(C)C)C(=O)N[C@@H](CO[C@@H]1O[C@H](CO[C@H]2O[C@H](CO)[C@H](O)[C@H](O)[C@H]2O)[C@@H](O)[C@H](O)[C@H]1O)C(N)=O)C(C)C)C(C)C)[C@@H](C)O [Compound 2LS98Mel],Emax,"human VPAC1 receptor; CHO, read-out: VPAC1 Emax",102%
same,Receptor selectivity ratio VPAC1/PAC1,human VPAC1 receptor; ratio of cAMP EC50 values,0.96
same,pEC50,human VPAC1 receptor; read-out: VPAC1 EC50,9.26
same,pEC50,human PAC1 receptor,9.24
same,Emax,human PAC1 receptor; CHO,99%
same,pEC50,human VPAC2 receptor,8.03
same,Emax,human VPAC2 receptor; CHO,86%
same,Receptor selectivity ratio VPAC2/PAC1,human VPAC2 receptor; ratio of cAMP EC50 values,16.49
same,Receptor selectivity ratio VPAC2/VPAC1,human VPAC2 receptor; ratio of cAMP EC50 values,17.09

# — PMC8887546, “Design and Synthesis of Brain Penetrant Glycopeptide Analogues of PACAP With Neuroprotective Potential for Traumatic Brain Injury and Parkinsonism” (Frontiers in drug discovery, 2022)
